According to patent publication US20250353891A1 (MEDIMMUNE LIMITED, priority 2022, published 2025):
Starred links: 1 amine or outer side, 2 acyl side, 3 side chain; linkers in the order of their positions; H or OH if unused. Non-standard residues stand in square brackets, D forms with d. Residues, ends and D or L forms follow the SMILES beside them. Groups on a side chain read outwards from the residue. *: point of attachment. C18 diacid = O=C(O)CCCCCCCCCCCCCCCCC(=O)*; γGlu = O=C(O)[C@H](CCC(=O)[*:2])N[*:1]; αMeF = C[C@](N)(Cc1ccccc1)C(=O)O; Aib = CC(C)(N)C(=O)O

Experiments:
[1] = molecular target: human GLP-1 receptor (hGLP-1R) (Homo sapiens, UniProt P43220); assay: cAMP production (HTRF) in CHO cells expressing hGLP-1R; type: cell-based; parameters: expressed in transfected cells; settings: for EC50: Table 7, peptides modified at position 20, cAMP in CHO hGLP-1R cells, geometric mean, read-out: hGLP-1R EC50; for % Relative Potency Ratio: Table 7, % GLP-1R activity relative to GLP-1 / % GlucR activity relative to glucagon
Procedure, shortened: (§1)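 Read-out: HTRF cAMP (anti-cAMP cryptate donor, cAMP-d2 acceptor in conjugate/lysis buffer), converted to % Delta F and fitted by 4-parameter logistic for EC50. Cell densities were 1×10^5 cells/mL (hGLP-1R) or 2×10^5 cells/mL (hGCGR). Stimulation lasted 30 min at room temperature.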

[2] = molecular target: human glucagon receptor (hGCGR) (Homo sapiens, UniProt P47871); assay: cAMP production (HTRF) in CHO cells expressing hGCGR; type: cell-based; parameters: expressed in transfected cells; settings: Table 7, peptides modified at position 20; cAMP in CHO hGCGR cells; geometric mean; read-out: hGluc-R EC50
Procedure, shortened: as §1

human glucagon receptor (hGCGR), sequence (P47871 26-477): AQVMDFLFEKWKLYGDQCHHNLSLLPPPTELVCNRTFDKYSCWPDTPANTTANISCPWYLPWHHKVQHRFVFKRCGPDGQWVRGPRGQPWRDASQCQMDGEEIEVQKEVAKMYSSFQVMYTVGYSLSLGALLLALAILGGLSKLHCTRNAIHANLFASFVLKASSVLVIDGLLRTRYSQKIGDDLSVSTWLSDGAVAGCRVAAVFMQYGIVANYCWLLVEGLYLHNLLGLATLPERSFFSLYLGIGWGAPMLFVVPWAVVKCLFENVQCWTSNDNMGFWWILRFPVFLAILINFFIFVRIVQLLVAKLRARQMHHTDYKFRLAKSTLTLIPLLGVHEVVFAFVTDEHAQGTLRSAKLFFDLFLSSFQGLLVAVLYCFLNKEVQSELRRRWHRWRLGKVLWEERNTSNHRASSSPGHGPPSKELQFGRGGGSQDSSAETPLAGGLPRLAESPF
human GLP-1 receptor (hGLP-1R), sequence (P43220 24-463): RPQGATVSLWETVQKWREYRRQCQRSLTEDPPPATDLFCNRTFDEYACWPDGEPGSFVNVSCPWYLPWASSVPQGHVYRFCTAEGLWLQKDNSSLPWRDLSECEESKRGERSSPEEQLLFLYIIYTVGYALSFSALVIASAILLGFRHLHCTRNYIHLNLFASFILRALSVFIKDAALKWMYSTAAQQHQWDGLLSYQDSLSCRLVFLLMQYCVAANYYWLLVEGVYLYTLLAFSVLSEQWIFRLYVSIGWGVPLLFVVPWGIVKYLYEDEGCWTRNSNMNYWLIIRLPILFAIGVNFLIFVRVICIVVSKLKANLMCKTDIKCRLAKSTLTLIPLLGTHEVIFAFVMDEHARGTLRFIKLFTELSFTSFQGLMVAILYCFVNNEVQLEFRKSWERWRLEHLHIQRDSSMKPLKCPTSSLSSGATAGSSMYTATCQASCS

| EC50 [1] | % Relative Potency Ratio [1] | EC50 [2] | SMILES |
| --- | --- | --- | --- |
| 0.135 nM | 3.1 | 0.213 nM | CC(C)C[C@H](NC(=O)[C@H](Cc1c[nH]c2ccccc12)NC(=O)[C@H](CCC(N)=O)NC(=O)[C@@H](NC(=O)[C@H](Cc1ccccc1)NC(=O)[C@H](CC(=O)O)NC(=O)[C@H](CCCCNC(=O)COCCOCCNC(=O)COCCOCCNC(=O)CC[C@H](NC(=O)CCCCCCCCCCCCCCCCC(=O)O)C(=O)O)NC(=O)[C@H](C)NC(=O)[C@H](CCCNC(=N)N)NC(=O)[C@H](CCCNC(=N)N)NC(=O)[C@H](CO)NC(=O)[C@H](CC(=O)O)NC(=O)[C@H](CC(C)C)NC(=O)[C@](C)(Cc1ccccc1)NC(=O)[C@H](CCCCN)NC(=O)[C@H](CO)NC(=O)[C@@H](NC(=O)[C@H](CC(=O)O)NC(=O)[C@H](CO)NC(=O)[C@@H](NC(=O)[C@H](Cc1ccccc1)NC(=O)[C@@H](NC(=O)CNC(=O)[C@H](CCC(N)=O)NC(=O)C(C)(C)NC(=O)[C@@H](N)Cc1c[nH]cn1)[C@@H](C)O)[C@@H](C)O)C(C)C)C(C)C)C(=O)N[C@@H](CC(C)C)C(=O)NC(C)(C)C(=O)N[C@H](C(=O)N[C@@H](CCC(=O)O)C(=O)O)[C@@H](C)O [Peptide 333] |
| 0.25 nM | 3.7 | 0.462 nM | CC(C)C[C@H](NC(=O)[C@H](Cc1c[nH]c2ccccc12)NC(=O)[C@H](CCC(N)=O)NC(=O)[C@@H](NC(=O)[C@H](Cc1ccccc1)NC(=O)[C@H](CC(=O)O)NC(=O)[C@H](CCCCNC(=O)CC[C@H](NC(=O)CCCCCCCCCCCCCCCCC(=O)O)C(=O)O)NC(=O)[C@H](C)NC(=O)[C@H](CCCNC(=N)N)NC(=O)[C@H](CCCNC(=N)N)NC(=O)[C@H](CO)NC(=O)[C@H](CC(=O)O)NC(=O)[C@H](CC(C)C)NC(=O)[C@](C)(Cc1ccccc1)NC(=O)[C@H](CCCCN)NC(=O)[C@H](CO)NC(=O)[C@H](Cc1ccc(O)cc1)NC(=O)[C@H](CC(=O)O)NC(=O)[C@H](CO)NC(=O)[C@@H](NC(=O)[C@H](Cc1ccccc1)NC(=O)[C@@H](NC(=O)CNC(=O)[C@H](CCC(N)=O)NC(=O)C(C)(C)NC(=O)[C@@H](N)Cc1c[nH]cn1)[C@@H](C)O)[C@@H](C)O)C(C)C)C(=O)N[C@@H](C)C(=O)NC(C)(C)C(=O)N[C@@H](CCC(=O)O)C(=O)O [Peptide 334] |
| 1.06 nM | 0.6 | 0.312 nM | CC(C)C[C@H](NC(=O)[C@H](Cc1c[nH]c2ccccc12)NC(=O)[C@H](CCC(N)=O)NC(=O)[C@@H](NC(=O)[C@H](Cc1ccccc1)NC(=O)[C@H](CC(=O)O)NC(=O)[C@H](CCCCNC(=O)CC[C@H](NC(=O)CCCCCCCCCCCCCCCCC(=O)O)C(=O)O)NC(=O)[C@H](C)NC(=O)[C@H](CCCNC(=N)N)NC(=O)[C@H](CCCNC(=N)N)NC(=O)[C@H](CO)NC(=O)[C@H](CC(=O)O)NC(=O)[C@H](CC(C)C)NC(=O)[C@](C)(Cc1ccccc1)NC(=O)[C@H](CCCCN)NC(=O)[C@H](CO)NC(=O)[C@H](Cc1ccc(O)cc1)NC(=O)[C@H](CC(=O)O)NC(=O)[C@H](CO)NC(=O)[C@@H](NC(=O)[C@H](Cc1ccccc1)NC(=O)[C@@H](NC(=O)CNC(=O)[C@H](CCC(N)=O)NC(=O)C(C)(C)NC(=O)[C@@H](N)Cc1c[nH]cn1)[C@@H](C)O)[C@@H](C)O)C(C)C)C(=O)N[C@@H](CC(C)C)C(=O)N[C@@H](CCC(=O)O)C(=O)NC(C)(C)C(=O)NCC(=O)O [Peptide 335] |
| 0.632 nM | 1.0 | 0.305 nM | CC[C@H](C)[C@H](NC(=O)[C@H](CC(C)C)NC(=O)[C@H](Cc1c[nH]c2ccccc12)NC(=O)[C@H](CCC(N)=O)NC(=O)[C@@H](NC(=O)[C@H](Cc1ccccc1)NC(=O)[C@H](CC(=O)O)NC(=O)[C@H](CCCCNC(=O)CC[C@H](NC(=O)CCCCCCCCCCCCCCCCC(=O)O)C(=O)O)NC(=O)[C@H](C)NC(=O)[C@H](CCCNC(=N)N)NC(=O)[C@H](CCCNC(=N)N)NC(=O)[C@H](CO)NC(=O)[C@H](CC(=O)O)NC(=O)[C@H](CC(C)C)NC(=O)[C@](C)(Cc1ccccc1)NC(=O)[C@H](CCCCN)NC(=O)[C@H](CO)NC(=O)[C@H](Cc1ccc(O)cc1)NC(=O)[C@H](CC(=O)O)NC(=O)[C@H](CO)NC(=O)[C@@H](NC(=O)[C@H](Cc1ccccc1)NC(=O)[C@@H](NC(=O)CNC(=O)[C@H](CCC(N)=O)NC(=O)C(C)(C)NC(=O)[C@@H](N)Cc1c[nH]cn1)[C@@H](C)O)[C@@H](C)O)C(C)C)C(=O)N[C@@H](CO)C(=O)N[C@@H](CCC(=O)O)C(=O)O [Peptide 336] (H-H[Aib]QGTFTSDYSK[αMeF]LDSRRAK([γGlu-C18 diacid])DFVQWLISE-OH; N-terminus assumed) |
| 0.4 nM | 0.4 | 0.0896 nM | CC(C)C[C@H](NC(=O)[C@H](Cc1c[nH]c2ccccc12)NC(=O)[C@H](CCC(N)=O)NC(=O)[C@@H](NC(=O)[C@H](Cc1ccccc1)NC(=O)[C@H](CC(=O)O)NC(=O)[C@H](CCCCNC(=O)CC[C@H](NC(=O)CCCCCCCCCCCCCCCCC(=O)O)C(=O)O)NC(=O)[C@H](C)NC(=O)[C@H](CCCNC(=N)N)NC(=O)[C@H](CCCNC(=N)N)NC(=O)[C@H](CO)NC(=O)[C@H](CC(=O)O)NC(=O)[C@H](CC(C)C)NC(=O)[C@](C)(Cc1ccccc1)NC(=O)[C@H](CCCCN)NC(=O)[C@H](CO)NC(=O)[C@H](Cc1ccc(O)cc1)NC(=O)[C@H](CC(=O)O)NC(=O)[C@H](CO)NC(=O)[C@@H](NC(=O)[C@H](Cc1ccccc1)NC(=O)[C@@H](NC(=O)CNC(=O)[C@H](CCC(N)=O)NC(=O)C(C)(C)NC(=O)[C@@H](N)Cc1c[nH]cn1)[C@@H](C)O)[C@@H](C)O)C(C)C)C(=O)N[C@@H](CC(C)C)C(=O)NC(C)(C)C(=O)N[C@H](C(=O)O)[C@@H](C)O [Peptide 337] |
| 0.308 nM | 0.2 | 0.0257 nM | CC(C)C[C@H](NC(=O)[C@H](Cc1c[nH]c2ccccc12)NC(=O)[C@H](CCC(N)=O)NC(=O)[C@@H](NC(=O)[C@H](Cc1ccccc1)NC(=O)[C@H](CC(=O)O)NC(=O)[C@H](CCCCNC(=O)CC[C@H](NC(=O)CCCCCCCCCCCCCCCCC(=O)O)C(=O)O)NC(=O)[C@H](C)NC(=O)[C@H](CCCNC(=N)N)NC(=O)[C@H](CCCNC(=N)N)NC(=O)C(C)(C)NC(=O)[C@H](CC(=O)O)NC(=O)[C@H](CC(C)C)NC(=O)[C@](C)(Cc1ccccc1)NC(=O)[C@H](CCCCN)NC(=O)[C@H](CO)NC(=O)[C@H](Cc1ccc(O)cc1)NC(=O)[C@H](CC(=O)O)NC(=O)[C@H](CO)NC(=O)[C@@H](NC(=O)[C@H](Cc1ccccc1)NC(=O)[C@@H](NC(=O)CNC(=O)[C@H](CCC(N)=O)NC(=O)C(C)(C)NC(=O)[C@@H](N)Cc1c[nH]cn1)[C@@H](C)O)[C@@H](C)O)C(C)C)C(=O)N[C@@H](CC(C)C)C(=O)NC(C)(C)C(=O)N[C@H](C(=O)O)[C@@H](C)O [Peptide 338] |
| 0.312 nM | 0.4 | 0.0703 nM | CC(C)C[C@H](NC(=O)[C@H](Cc1c[nH]c2ccccc12)NC(=O)[C@H](CCC(N)=O)NC(=O)[C@@H](NC(=O)[C@H](Cc1ccccc1)NC(=O)[C@H](CC(=O)O)NC(=O)[C@H](CCCCNC(=O)CC[C@H](NC(=O)CCCCCCCCCCCCCCCCC(=O)O)C(=O)O)NC(=O)[C@H](C)NC(=O)[C@H](CCCNC(=N)N)NC(=O)[C@H](CCCNC(=N)N)NC(=O)[C@H](CO)NC(=O)[C@H](CC(=O)O)NC(=O)[C@H](CC(C)C)NC(=O)[C@](C)(Cc1ccccc1)NC(=O)[C@H](CCCCN)NC(=O)[C@H](CO)NC(=O)[C@H](Cc1ccc(O)cc1)NC(=O)[C@H](CC(=O)O)NC(=O)[C@H](CO)NC(=O)[C@@H](NC(=O)[C@H](Cc1ccccc1)NC(=O)[C@@H](NC(=O)CNC(=O)[C@H](CCC(N)=O)NC(=O)C(C)(C)NC(=O)[C@@H](N)Cc1c[nH]cn1)[C@@H](C)O)[C@@H](C)O)C(C)C)C(=O)N[C@@H](CC(C)C)C(=O)NC(C)(C)C(=O)N[C@@H](CCC(=O)O)C(=O)O [Peptide 339] (H-H[Aib]QGTFTSDYSK[αMeF]LDSRRAK([γGlu-C18 diacid])DFVQWLL[Aib]E-OH; N-terminus assumed) |
| 0.312 nM | 0.6 | 0.0947 nM | CC(C)C[C@H](NC(=O)[C@H](Cc1c[nH]c2ccccc12)NC(=O)[C@H](CCC(N)=O)NC(=O)[C@@H](NC(=O)[C@H](Cc1ccccc1)NC(=O)[C@H](CC(=O)O)NC(=O)[C@H](CCCCNC(=O)CC[C@H](NC(=O)CCCCCCCCCCCCCCCCC(=O)O)C(=O)O)NC(=O)[C@H](C)NC(=O)[C@H](CCCNC(=N)N)NC(=O)[C@H](CCCNC(=N)N)NC(=O)[C@H](CO)NC(=O)[C@H](CC(=O)O)NC(=O)[C@H](CC(C)C)NC(=O)[C@](C)(Cc1ccccc1)NC(=O)[C@H](CCCCN)NC(=O)[C@H](CO)NC(=O)[C@H](Cc1ccc(O)cc1)NC(=O)[C@H](CC(=O)O)NC(=O)[C@H](CO)NC(=O)[C@@H](NC(=O)[C@H](Cc1ccccc1)NC(=O)[C@@H](NC(=O)CNC(=O)[C@H](CCC(N)=O)NC(=O)C(C)(C)NC(=O)[C@@H](N)Cc1c[nH]cn1)[C@@H](C)O)[C@@H](C)O)C(C)C)C(=O)N[C@@H](CC(C)C)C(=O)NC(C)(C)C(=O)N[C@H](C(=O)N[C@@H](CCC(=O)O)C(=O)O)[C@@H](C)O [Peptide 340] |
